Key:
Format in all cases: cell-based
[1] = test system: BL21 cells; test: Half minimum inhibitory concentrations (MIC) on BL21 cells, titration analysis; details: half minimum inhibitory concentration on BL21 cells
[2] = test system: bacterial cells expressing pT7PMS134/V5; test: Overnight growth in antibiotic, MMR defective bacteria expressing PMS2-134; details: overnight at 37° C., 10^7 cells in 5 ml LB broth plus antibiotic at 0.5X MIC
Experimental: (§1) Titration analysis found the following amounts to be effective in inhibiting bacterial growth in the presence of various compounds.
(§2) The next day, cultures were analyzed for cell growth in the presence or absence of antibiotics.

[3] = test system: bacterial cells expressing the vector (pT7Ea); test: Overnight growth in antibiotic, vector control bacteria; details: overnight at 37° C., 10^7 cells in 5 ml LB broth plus antibiotic at 0.5X MIC
Experimental: as §1, §2

Row | Structure (SMILES) | 0.5X MIC [1] | Cell # (X10^9) (pT7PMS134V5) [2] | Cell # (pT7Ea) [3]
1 | CCn1cc(C(=O)O)c(=O)c2cc(F)c(N3CCNCC3)cc21 [Norfloxacin] | 0.13 µg/mL | 1.40 X10^9 | 0
2 | CN[C@H](CC(C)C)C(=O)N[C@H]1C(=O)N[C@@H](CC(N)=O)C(=O)N[C@H]2C(=O)N[C@H]3C(=O)N[C@H](C(=O)N[C@H](C(=O)O)c4cc(O)cc(O)c4-c4cc3ccc4O)[C@H](O)c3ccc(c(Cl)c3)Oc3cc2cc(c3O[C@@H]2O[C@H](CO)[C@@H](O)[C@H](O)[C@H]2O[C@H]2C[C@](C)(N)[C@H](O)[C@H](C)O2)Oc2ccc(cc2Cl)[C@H]1O [Vancomycin] | 250.0 µg/mL | – | 0
3 | CN(C)[C@@H]1C(O)=C(C(N)=O)C(=O)[C@@]2(O)C(O)=C3C(=O)c4c(O)cccc4[C@@](C)(O)[C@H]3C[C@@H]12 [Tetracycline] | – | 1.10 X10^9 | 0
4 | CCn1cc(C(=O)O)c(=O)c2ccc(C)nc21 [Nalidixic Acid] | 7.10 µg/mL | 0.97 X10^9 | 0
5 | CC1COc2c(N3CCN(C)CC3)c(F)cc3c(=O)c(C(=O)O)cn1c23 (stereo not shown) [Ofloxacin] | 0.13 µg/mL | 1.20 X10^9 | 0

From patent publication US20030068808A1, “Methods for generating antibiotic resistant microbes and novel antibiotics” (priority 2001, published 2003)
